Measured values as given in paper PMC5225183, “Fingerprinting of neurotoxic compounds using a mouse embryonic stem cell dual luminescence reporter assay” (Archives of Toxicology, 2016).
Like-named read-outs stand apart in the source and are kept apart here. Marks after values point to notes of the source that are not given here.

How the values were obtained:
[1] = system: Tubulin α1 (Tα1) promoter; assay: cells
Description: (§1) Dual luciferase expressing CGR8-2Luc cells were obtained by transduction of mouse ESC CGR8 cells with the 2K7 EFS-Renilla Luciferase (RLuc)/Talpha1-Firefly Luciferase (FLuc) vector as previously described (Suter et al. [2006], [2009]); EFS corresponds to the short promoter of the eukaryotic translation elongation factor 1 alpha (EF1α), and Talpha1 to the Tubulin α1 (Tα1) promoter. Tα1 was selected as a promoter active in neurons, including early stages of neural differentiation. EF1α was originally selected to function as a constitutive promoter; however, it responds to cellular differentiation as well as to various chemicals, as previously shown (Kern et al. [2013]). Cells were cultured on 0.1 % gelatin-coated dishes in CGR8-2luc maintenance medium: BHK21 medium, supplemented with 10 % fetal calf serum, L-glutamine, non-essential amino acids, penicillin/streptomycin, and leukemia inhibitory factor (LIF). CGR8 cells were grown in a feeder-independent manner (embryonic pluripotent stem cells, ESCs) as described in protocol 1 (Fig. 1) before testing compounds of interest.
(§2) Fig. 1 Synopsis of experimental protocols. The impact of compounds on neural promoter activity (FLuc, Firefly Luciferase under the control of the Tα1 promoter), general promoter activity (RLuc, Renilla Luciferase under the control of the EF1α promoter), and amount of DNA (PI, propidium iodide fluorescence in cell homogenates) was investigated in undifferentiated mouse embryonic pluripotent stem cells (ESCs) and on ESC-derived neurons. Arrows indicate the time of measurement of the three parameters. a Protocol for testing compounds effects on ESCs. CGR8-2Luc cells were plated on gelatin-coated 96-well plates in maintenance medium (BHK21 medium containing 10 % FCS, L-glutamine, NEAA, P/S, and LIF). Twenty-four hours later, cells were exposed to compounds for forty-eight hours. b Protocol for testing compounds on ESC-derived neurons. CGR8-2Luc cells were co-cultured with MS5 cells to induce neural differentiation in DMEM medium containing 15 % KO-serum, NEAA, β-mercaptoethanol, and P/S. On day 5, cells were detached and seeded on polyornithine-coated plates in DMEM medium containing N2 supplement, bFGF, and P/S; compound exposure was from day 6 to day 8
(§3) To test compounds on ESC-derived neurons, neuronal differentiation was carried out as previously described (Suter et al. [2009]; Xu et al. [2014]). Briefly, CGR8-2Luc cells were seeded on irradiated bone marrow-derived stromal MS5 cells and cultivated for 4 days in DMEM medium containing 15 % Knock-out™ Serum Replacement, non-essential amino acids, beta-mercaptoethanol, and penicillin/streptomycin. At day 5, cells were then re-plated (3 × 10^5 cells/cm^2) on polyornithine-coated 96-well plates in N2 medium containing DMEM, N2 supplement, penicillin/streptomycin, and 10 ng/ml basic human fibroblast growth factor (bFGF) (Invitrogen). […] To assess toxicity of compounds on undifferentiated pluripotent stem cells (ESCs), CGR8-2Luc cells were plated at 45,000 cells/cm^2 on 0.1 % gelatin-coated dishes in BHK21 medium, supplemented with 10 % fetal calf serum, L-glutamine, non-essential amino acids, penicillin/streptomycin, and leukemia inhibitory factor (LIF). After 24 h, compounds were added and incubated for 48 h, before luciferase expression and PI fluorescence were analyzed. In all experiments, methylmercury was used as a positive control at a concentration of 5 µM.
(§4) Luciferase activities were measured with a Dual-Luciferase™ Reporter system kit. CGR8-2Luc ES cells were lysed in 96-well plates according to the manufacturer’s instructions. Luminescence measurements were performed on a Fluostar Optima reader. Luminescence counts were expressed as percentage of promoter activity normalized by comparison with the control wells treated by DMSO.

ESC-derived neurons = system: ESC-derived neurons
Description: as §2, §3
(§5) After measurement of luciferase activity, DNA quantity was determined by PI assay, as previously described (Xu et al. [2014]). PI was added to cell homogenates after the luciferase test, at a final concentration of 50 µg/ml and incubated for 2 h. After incubation, fluorescence intensity was measured on a Flexstation 3 microplate reader (Excitation: 544 nm ± 15 nm; Emission: 620 nm ± 15 nm). Results are expressed as percentage of control. Propidium iodide (PI) measures total DNA content as an approximation of the cell number. A decrease in PI fluorescence was interpreted as a decrease in cell number and therefore throughout the text referred to as cytotoxicity.
(§6) Lowest adverse effect level (LOAEL) was defined as the lowest tested concentrations that lead to a statistically significant decrease for a given read-out (FLuc, RLuc, and PI) compared to baseline. “Baseline” was not in all cases defined by untreated cells, but may also refer to, e.g., a state of increased activity due to low, non-toxic compound concentrations.

CGR8-2Luc ESCs = system: CGR8-2Luc ESCs
Description: as §2, §3, §5, §6

EF1α promoter = system: EF1α promoter
Description: as §1, §2, §3, §4

[2] = system: Tubulin α1 (Tα1) promoter
Description: as §1, §2, §3, §4

[3] = system: ESCs and ESC-derived neurons; assay: Dual luminescence reporter test system, all readouts in ESCs and ESC-derived neurons
Description: as §2, with “neurons.” for “neurons. CGR8-2Luc cells were co-cultured with MS5 cells to induce neural differentiation in DMEM medium containing 15 % KO-serum, NEAA, β-mercaptoethanol, and P/S. On day 5, cells were detached and seeded on polyornithine-coated plates in DMEM medium containing N2 supplement, bFGF, and P/S; compound exposure was from day 6 to day 8”
as §3, with “At” for “To test compounds on ESC-derived neurons, neuronal differentiation was carried out as previously described (Suter et al. [2009]; Xu et al. [2014]). Briefly, CGR8-2Luc cells were seeded on irradiated bone marrow-derived stromal MS5 cells and cultivated for 4 days in DMEM medium containing 15 % Knock-out™ Serum Replacement, non-essential amino acids, beta-mercaptoethanol, and penicillin/streptomycin. At”
Luciferase activities were measured with a Dual-Luciferase™ Reporter system kit. CGR8-2Luc ES cells were lysed in 96-well plates according to the manufacturer’s instructions. Luminescence measurements were performed on a Fluostar Optima reader. Luminescence counts were expressed as percentage of promoter activity normalized by comparison with the control wells treated by DMSO. […] parameters were measured in homogenates of ESCs and in ESC-derived neurons: (1) FLuc, reflecting the activity of early neural promoter Tα1. FLuc increases during neuronal differentiation. Many neurotoxic compounds may affect FLuc expression, either through impact on neuronal differentiation, through changes of neuronal gene expression, or through killing of neurons.
as §5, with “PI” for “After measurement of luciferase activity, DNA quantity was determined by PI assay, as previously described (Xu et al. [2014]). PI”
To describe the shape of different concentration–response curves, arbitrary scores were assigned as follows: 0 for “no change,” 1 for “down-stroke,” 2 for “bimodal profile,” and 3 for “up-stroke” (Fig. S1). A curve was classified as “down-stroke” or “up-stroke” if the change in response values comparative to control was statistically significant (p value <0.05, one-way ANOVA with post hoc Dunnett) with an additional requirement of a 30 % decrease or increase of mean response value relative to controls, respectively. If the absolute change in mean response values was below 30 % the curve was classified as “no change.” A curve was classified as “bimodal” if first up-stroke and subsequently down-stroke was observed.

[4] = Table S1, three classes; ref per compound in the footnotes of Table S1; cited from earlier work
[5] = cited from earlier work
[6] = ESC-derived neurons, 48 h exposure
[7] = ESC-derived neurons, 48 h exposure, PI assay (cytotoxicity)
[8] = undifferentiated ESCs, 48 h exposure, PI assay (cytotoxicity)
[9] = undifferentiated ESCs, 48 h exposure
[10] = undifferentiated ESCs, 48 h exposure, lowest tested concentration with statistically significant decrease
[11] = reporter activity changes in the non-cytotoxic concentration range, highest possible number 4

| Structure (SMILES) | class based on clinical evidence for neurotoxicity [4] | LOAEL Neurons Tα1 [1, 6] [µM] | LOAEL Neurons DNA (ESC-derived neurons; [7]) [µM] | LOAEL ESC DNA (CGR8-2Luc ESCs; [8]) [µM] | LOAEL Neurons EF1α (EF1α promoter; [6]) [µM] | LOAEL ESC EF1α (EF1α promoter; [9]) [µM] | LOAEL ESC Tα1 [2, 10] [µM] | Number of non-cytotoxic changes ([3]; mouse, 48 h) | result in the dual luminescence reporter test system [3] | LOAEL Neurons Tα1 ([1]; mouse) [µM] | LOAEL Neurons DNA (ESC-derived neurons; mouse) [µM] | LOAEL ESC DNA (CGR8-2Luc ESCs; mouse) [µM] | LOAEL ESC EF1α (EF1α promoter; mouse) [µM] | LOAEL Neurons EF1α (EF1α promoter; mouse) [µM] | LOAEL ESC Tα1 ([2]; mouse) [µM] | other results |
| --- | --- | --- | --- | --- | --- | --- | --- | --- | --- | --- | --- | --- | --- | --- | --- | --- |
| O=C(O)c1cc[c]([Hg][Cl])cc1 [4-chloromercuric benzoic acid] | Possibly (developmental) | – | – | – | – | – | – | – | – | – | – | – | – | – | – | LOAEL Neurons Tα1 [1]: 10 µM; LOAEL Neurons DNA (ESC-derived neurons): 100 µM; LOAEL ESC DNA (CGR8-2Luc ESCs): 5 µM; LOAEL ESC EF1α (EF1α promoter): 5 µM; LOAEL Neurons EF1α (EF1α promoter): 100 µM; LOAEL ESC Tα1 [2]: 5 µM; Number of non-cytotoxic changes [3]: 1 |
| CN(C)CCCN1c2ccccc2Sc2ccc(Cl)cc21 [Chlorpromazine] | Well-established (developmental) | 1 | 20 | 20 | 2 | 20 | 20 | 1 | – | – | – | – | – | – | – | – |
| OC[C@@H](O)[C@@H](O)[C@H](O)[C@H](O)CO [D-mannitol] | Non-neurotoxic | >50 | >50 | >50 | >50 | >50 | >50 | 0 | negative | – | – | – | – | – | – | – |
| O=C(O)c1cccnc1 [Nicotinic acid] | Non-neurotoxic | – | – | – | – | – | – | 0 | negative | >50 | >50 | >50 | >50 | >50 | >50 | – |
| Clc1cc(Cl)c(-c2cc(Cl)c(Cl)cc2Cl)cc1Cl [PCB-153] | Well-established (developmental) | – | – | – | – | – | – | – | – | – | – | – | – | – | – | effect on neural promoter activity in neurons [1]: decreased; effect on cell number in neurons (ESC-derived neurons): without affecting the number of cells; effect on general promoter activity in neurons (EF1α promoter): decreased; result in the dual luminescence reporter test system ([3]; ESCs and neurons, FLuc, RLuc, PI): potentially neurotoxic; Number of non-cytotoxic changes [3, 11]: 2; Concentration in humans (human exposure concentration) ([5]; human exposure concentration, ref Zimmer et al. ([2014])): 0.0003-0.002^k (human exposure concentration) µM |
| O=C1NS(=O)(=O)c2ccccc21 [Saccharin] | Non-neurotoxic | – | – | – | – | – | – | 0 | negative | >50 | >50 | >50 | >50 | >50 | >50 | Concentration in humans ([5]; ref Sweatman et al. ([1981])): 218^c µM |
| Nc1ccc(S(=O)(=O)Nc2ncccn2)cc1 [Sulfadiazine] | Possibly (developmental) | – | – | – | – | – | – | 0 | – | >50 | >50 | >50 | >50 | >50 | >50 | Concentration in humans ([5]; ref Zimmer et al. ([2014])): 320^k µM |
| CCC[C@H](NC(=O)[C@@H]1[C@H]2CCC[C@H]2CN1C(=O)[C@@H](NC(=O)[C@@H](NC(=O)c1cnccn1)C1CCCCC1)C(C)(C)C)C(=O)C(=O)NC1CC1 [Telaprevir] | – | 50 | 50 | 50 | – | 50 | 50 | 0 | – | – | – | – | – | – | – | LOAEL Neurons EF1α (EF1α promoter; mouse, 48 h): 50 µM; Concentration in humans ([5]; in vivo): 5.1^k µM |
| [CH3][Sn]([CH3])([CH3])[Cl] [Trimethyltin chloride] | Well-established (developmental) | 5 | 5 | 5 | 0.05 | 5 | 5 | – | – | – | – | – | – | – | – | EF1α promoter LOAEL in neurons (EF1α promoter; [6]): 50 nM; Number of non-cytotoxic changes [3, 11]: 1 |
